Data from patent EP0063238A1, “An efficiency-improving agent for feed and a preventive and treating agent for coccidiosis” (KAKEN PHARMACEUTICAL CO., LTD., priority 1981, dated 1982).

What was measured:
[1] = Feed efficiency test on swine; format: in vivo, swine (landrace); conditions: for The rate of feed requirement / The average increase in the body weight during the test period / The average ingested amount of feed during the test period / The improved ratio of the rate of feed requirement: 12 weeks; for The average increase in the body weight during the test period / The average ingested amount of feed during the test period: young pigs; for The improved ratio of the rate of feed requirement: versus no addition; for The total number of days of diarrheal stool in each group / The total number of days during the test period in each group: 6 pigs, period of 4 weeks
Experimental: Feed efficiency test on swine
Method: • Thirty young pigs were divided into 5 groups of 6 each in such a way that the average body weight is the same in each group. To the basal feed were added 0, 25, and 50 ppm each of 5057A and 5057B. The resulting basal feeds were administered over the period of 12 weeks and the body weight and the ingested amount of the feeds were measured. The total number of days that the pigs suffered from diarrhea during the period of 4 weeks was counted.

Acute toxicity test = conditions: mouse, in vivo, mice
Experimental: An acute toxicity test was carried out with mice. As a result, the LD50 value of the 5057A and 5057B substances is 50 mg/kg i.p. and 50 mg/kg or more p.o. [drawing 14] [drawing 15]

[2] = Feed efficiency test on a ruminant; format: in vivo, Cattle (Holstein); conditions: 240 days; for The average increase in the body weight during the test period: castrated Holstein oxen; for The improved ratio of the rate of concentrated feed requirement: versus no addition
Experimental: Feed efficiency test on a ruminant Cattle tested: Holstein
Basal feed: • Concentrated feed: [formula]
(§1) Method: • Twenty five castrated Holstein oxen 9 months of age were divided into 5 groups of 5 each in such a way that the average body weight is almost the same in each group. Concentrated basal feeds to which 0, 10, and 20 ppm each of 5057A and 5057B had been added were each administered over the period of 240 days. As a crude feed, 1 kg per animal of straw of rice plants were administered.

[3] = Feed efficiency test on domestic fowls; format: in vivo; conditions: 70 days; for The average increase in the body weight during the test period / The average ingested amount of feed during the test period: chickens; for The rate of feed requirement: ingested feed / body weight increase; for The improved ratio of the rate of feed requirement: versus no addition
Experimental: Feed efficiency test on domestic fowls
Domestic fowls tested: species used exclusively for broiler (Aber Acres species) Basal feed:
Method: • Fifty newborn chickens were divided into 5 groups of 10 each in such a way that the average body weight is the same in each group. Premixes of 5057A and 5057B were added to the foregoing basal feed so that the contents of 5057A and 5057B are .40 ppm and 80 ppm, respectively. This feed was administered to the animals over the period of 70 days, and the body weight and the ingested amount of the feed were measured.

[4] = Propionic acid/acetic acid ratio in gastric juice from the rumen of the oxen tested; format: in vivo, Cattle (Holstein); conditions: for The propionic acid concentration/The acetic acid concentration (the average value): rumen gastric juice; for ratio between propionic acid/acetic acid in the gastric juice in the rumen: as compared with the case of no addition
Experimental: as §1
The administration of the feeds to which the present substances had been added improved the utilization rate of the concentrated feed by 10 - 17% and the increased amount of the body weight by 3 - 8%. The gastric juice from the rumen of the oxen tested was collected and measured for the concentrations of acetic and propionic acids, thus the ratio between them being calculated.

Eimeria tenellum = experiment: Preventive and treating activity against coccidiosis in a domestic fowl; format: in vivo; conditions: for Relation rate of the increase in the body weight: noninfection control = 100; for OPG: number of oocysts in 1 g of stool, 7 days after the inoculation; for Death rate: white leghorn chickens inoculated p.o. with oocysts; for preventive and treating activity against coccidiosis: conclusion in text from Table 5
Experimental: The preventive and treating activity against coccidiosis in a domestic fowl Domestic fowls tested: white leghorns Basal feed:
Method: • Fifty male white leghorn chickensl4 days of age were divided into 5 groups of 10 each. To the basal feed were added 50 and 100 ppm each of 5057A and 5057B. Infection with coccidiosis was done by inoculating […] per chicken of spore-forming oocysts of Eimeria tenellum directly p.o. into the crop of the chickens.
Groupsl - 4 were reared with the feeds containing predetermined concentrations of the 5057 substances, starting from 1 day before the inoculation with oocysts. Group 5 is an infection control that was inoculated with oocysts and reared with the basal feed containing no agents tested and Group 6 is a noninfection control. After 7 days after the inoculation with oocysts, the number of oocysts (OPG) in 1 g of stool was counted.

[5] = 10 ppm, 1 day after the administration
[6] = 10 ppm, 21 days after the administration
[7] = 10 ppm, 56 days after the administration
[8] = 20 ppm, 1 day after the administration
[9] = 20 ppm, 21 days after the administration
[10] = 20 ppm, 56 days after the administration

## CCC(C(=O)C(C)C(O)C(C)C1OC(O)(C(C)C(=O)O)C(C)CC1C)C1OC(C)(C2(O)OC(CC)(C(C)O)CC2C)CC1C (stereo not drawn) [5057A]
[1]; 25 ppm in feed
  The rate of feed requirement: 2.353
  The average increase in the body weight during the test period: 45.35 kg
  The average ingested amount of feed during the test period: 106.7 kg
  The improved ratio of the rate of feed requirement: 4.3%
  The total number of days of diarrheal stool in each group / The total number of days during the test period in each group: 21/168
[1]; 50 ppm in feed
  The rate of feed requirement: 2.287
  The average increase in the body weight during the test period: 50.93 kg
  The average ingested amount of feed during the test period: 116.5 kg
  The improved ratio of the rate of feed requirement: 7.0%
  The total number of days of diarrheal stool in each group / The total number of days during the test period in each group: 11/168
Acute toxicity test; ip
  LD50: 50 mg/kg
Acute toxicity test; po
  LD50: ≥ 50 mg/kg
[2]; 10 ppm in concentrated feed
  The average ingested amount of concentrated feed during the test period: 2413 kg
  The rate of concentrated feed requirement: 8.904
  The average increase in the body weight during the test period: 271 kg
  The improved ratio of the rate of concentrated feed requirement: 10.2%
[2]; 20 ppm in concentrated feed
  The average ingested amount of concentrated feed during the test period: 2365 kg
  The rate of concentrated feed requirement: 8.446
  The average increase in the body weight during the test period: 280 kg
  The improved ratio of the rate of concentrated feed requirement: 14.8%
[3]; 40 ppm in feed
  The average increase in the body weight during the test period: 2.54 kg
  The average ingested amount of feed during the test period: 5.59 kg
  The rate of feed requirement: 2.201
  The improved ratio of the rate of feed requirement: 4.3%
[3]; 80 ppm in feed
  The average increase in the body weight during the test period: 2.55 kg
  The average ingested amount of feed during the test period: 5.63 kg
  The rate of feed requirement: 2.218
  The improved ratio of the rate of feed requirement: 4.0%
[4]; [5]
  The propionic acid concentration/The acetic acid concentration (the average value): 0.80
[4]; [6]
  The propionic acid concentration/The acetic acid concentration (the average value): 0.73
[4]; [7]
  The propionic acid concentration/The acetic acid concentration (the average value): 0.78
[4]; [8]
  The propionic acid concentration/The acetic acid concentration (the average value): 0.83
[4]; [9]
  The propionic acid concentration/The acetic acid concentration (the average value): 0.96
[4]; [10]
  The propionic acid concentration/The acetic acid concentration (the average value): 0.86
[4]
  ratio between propionic acid/acetic acid in the gastric juice in the rumen: increases
Eimeria tenellum; 50 ppm in feed
  Relation rate of the increase in the body weight: 104%
  OPG: 0.01 x 10^4
  Death rate: 0%
Eimeria tenellum; 100 ppm in feed
  Relation rate of the increase in the body weight: 103%
  OPG: 0 x 10^4
  Death rate: 0%
Eimeria tenellum
  preventive and treating activity against coccidiosis: have a preventive and treating activity against coccidiosis

## CCC(C(=O)C(C)C(O)C(C)C1OC(O)(C(C)C(=O)O)C(C)CC1C)C1OC(C)(C2(O)OC(CC)(C(O)CC)CC2C)CC1C (stereo not drawn) [5057B]
[1]; 25 ppm in feed
  The rate of feed requirement: 2.348
  The average increase in the body weight during the test period: 47.62 kg
  The average ingested amount of feed during the test period: 111.8 kg
  The improved ratio of the rate of feed requirement: 4.6%
  The total number of days of diarrheal stool in each group / The total number of days during the test period in each group: 18/168
[1]; 50 ppm in feed
  The rate of feed requirement: 2.263
  The average increase in the body weight during the test period: 51.26 kg
  The average ingested amount of feed during the test period: 116.0 kg
  The improved ratio of the rate of feed requirement: 8.0%
  The total number of days of diarrheal stool in each group / The total number of days during the test period in each group: 6/168
Acute toxicity test; ip
  LD50: 50 mg/kg
Acute toxicity test; po
  LD50: ≥ 50 mg/kg
[2]; 10 ppm in concentrated feed
  The average ingested amount of concentrated feed during the test period: 2406 kg
  The rate of concentrated feed requirement: 8.813
  The average increase in the body weight during the test period: 273 kg
  The improved ratio of the rate of concentrated feed requirement: 11.1%
[2]; 20 ppm in concentrated feed
  The average ingested amount of concentrated feed during the test period: 2354 kg
  The rate of concentrated feed requirement: 8.289
  The average increase in the body weight during the test period: 284 kg
  The improved ratio of the rate of concentrated feed requirement: 16.4%
[3]; 40 ppm in feed
  The average increase in the body weight during the test period: 2.67 kg
  The average ingested amount of feed during the test period: 5.74 kg
  The rate of feed requirement: 2.150
  The improved ratio of the rate of feed requirement: 6.6%
[3]; 80 ppm in feed
  The average increase in the body weight during the test period: 2.62 kg
  The average ingested amount of feed during the test period: 5.67 kg
  The rate of feed requirement: 2.164
  The improved ratio of the rate of feed requirement: 6.0%
[4]; [5]
  The propionic acid concentration/The acetic acid concentration (the average value): 0.79
[4]; [6]
  The propionic acid concentration/The acetic acid concentration (the average value): 0.76
[4]; [7]
  The propionic acid concentration/The acetic acid concentration (the average value): 0.77
[4]; [8]
  The propionic acid concentration/The acetic acid concentration (the average value): 0.83
[4]; [9]
  The propionic acid concentration/The acetic acid concentration (the average value): 1.00
[4]; [10]
  The propionic acid concentration/The acetic acid concentration (the average value): 0.93
[4]
  ratio between propionic acid/acetic acid in the gastric juice in the rumen: increases
Eimeria tenellum; 50 ppm in feed
  Relation rate of the increase in the body weight: 106%
  OPG: 0 x 10^4
  Death rate: 0%
Eimeria tenellum; 100 ppm in feed
  Relation rate of the increase in the body weight: 106%
  OPG: 0 x 10^4
  Death rate: 0%
Eimeria tenellum
  preventive and treating activity against coccidiosis: have a preventive and treating activity against coccidiosis
